From patent publication US10294228B2, “Breathing control modulating compounds, and methods of making and using same” (NEURAD LTD., priority 2015, dated 2019)

Test system: anesthetized rats
Assay: Anesthetized rat spirometry screening assay (ventilatory activity, minute volume)
Type: in vivo
Conditions: increase in minute volume (VE); for change in vivo at 0.3 mg/kg: 0.3 mg/kg IV bolus, read-out: VE % Inc @ 0.3 mg/kg IV; for change in vivo at 3 mg/kg: 3.0 mg/kg IV bolus, read-out: VE % Inc @ 3.0 mg/kg IV
Procedure: Anesthetized rats provide a quick method of screening compounds for respiratory and cardiovascular activity.
Rats were initially anesthetized with 3% isoflurane (inhaled) and femoral artery and vein cannulas were surgically inserted. Once cannulated, the rats were transitioned to urethane anesthesia (1.5 g/kg; i.v.) and a tracheal cut-down was performed. After placing the tracheal cannula, it was connected to a pneumotachometer to record respiratory airflow from which respiratory rate (RR), tidal volume (VT), and their product minute volume (MV, also termed VE) were derived. After the surgical preparation was complete, animals were allowed to stabilize for 30 minutes while respiratory rate, tidal volume, minute volume, blood pressure and heart rate were recorded continuously. Arterial blood gases (ABG) were obtained from arterial blood collected from the femoral artery. ABG measurements were taken before and 6 minutes after vehicle and each dose of compound administered. Compounds being screened were administered via bolus injections through the venous cannula followed by a saline flush (total time of administration is approximately 30 seconds), and the animal was monitored for at least 6 minutes for changes in cardiovascular efforts. Compounds were prepared in formulations identified to ensure optimal solubility. As such, vehicle controls were matched for the formulation of each compound tested. Dosing of the compounds being screened was conducted at 0.1 and/or 0.3 mg/kg and/or 3 mg/kg The next dose was not administered until all cardiovascular and respiratory measures had returned to baseline levels. The positive control compounds used were N-[4,6-di-(n-propylamino)-[1,3,5]triazin-2-yl]-N,O-dimethyl-hydroxylamine or N-[2,6-di-(n-propylamino)-[1,3]pyrimidin-4-yl]-N,O-dimethyl-hydroxylamine (both administered at the end of each screening experiment (0.3 mg/kg dose) to validate the experiment and also to serve as a measure with which the compound being screened could be compared.
Data were analyzed by collecting cardiovascular and respiratory data in 30 second averages (BINs). Data were plotted 2 minutes before challenge and then 6 minutes after challenge.

Row | SMILES | change in vivo at 0.3 mg/kg [%] | change in vivo at 3 mg/kg [%]
1 | CCCNc1nc(NC)c2nc(N(C)CC(C)(C)O)nc(NC)c2n1 [Compound 96, 1-[(4,8-Bis-methylamino-6-propylamino-pyrimido[5,4-d]pyrimidin-2-yl)-methyl-amino]-2-methyl-propan-2-ol] | 70 | 96
2 | CCCNc1nc(NC)c2nc(N(C)CC(C)O)nc(NC)c2n1 (stereo not shown) [Compound 97, 1-[(4,8-Bis-methylamino-6-propylamino-pyrimido[5,4-d]pyrimidin-2-yl)-methyl-amino]-propan-2-ol] | 49 | 140
3 | CC[C@@H](C)Nc1nc(NC)c2nc(NCC(C)(C)O)nc(NC)c2n1 [Compound 99, 1-[6-((R)-sec-Butylamino)-4,8-bis-methylamino-pyrimido[5,4-d]-pyrimidin-2-ylamino]-2-methyl-propan-2-ol] | 25 | 61
4 | CC[C@@H](C)Nc1nc(NC)c2nc(NC[C@@H](C)O)nc(NC)c2n1 [Compound 100, (R)-1-[6-((R)-sec-Butylamino)-4,8-bis-methylamino-pyrimido[5,4-d]pyrimidin-2-ylamino]-propan-2-ol] | 33 | 139
5 | CC[C@@H](C)Nc1nc(NC)c2nc(NC[C@H](C)O)nc(NC)c2n1 [Compound 101, (S)-1-[6-((R)-sec-Butylamino)-4,8-bis-methylamino-pyrimido[5,4-d]pyrimidin-2-ylamino]-propan-2-ol] | 20 | 129
6 | CC[C@H](C)Nc1nc(NC)c2nc(NCC(C)(C)O)nc(NC)c2n1 [Compound 103, 1-[6-((S)-sec-Butylamino)-4,8-bis-methylamino-pyrimido[5,4-d]-pyrimidin-2-ylamino]-2-methyl-propan-2-ol] | 5 | 99
7 | CC[C@H](C)Nc1nc(NC)c2nc(NC[C@@H](C)O)nc(NC)c2n1 [Compound 104, (R)-1-[6-((S)-sec-Butylamino)-4,8-bis-methylamino-pyrimido[5,4-d]pyrimidin-2-ylamino]-propan-2-ol] | 33 | 98
8 | CC[C@H](C)Nc1nc(NC)c2nc(NC[C@H](C)O)nc(NC)c2n1 [Compound 105, (S)-1-[6-((S)-sec-Butylamino)-4,8-bis-methylamino-pyrimido[5,4-d]pyrimidin-2-ylamino]-propan-2-ol] | 14 | 120
9 | CNc1nc(NCC(C)(C)O)nc2c(NC)nc(NCC(F)F)nc12 [Compound 107, 1-[6-(2,2-Difluoro-ethylamino)-4,8-bis-methylamino-pyrimido[5,4-d]pyrimidin-2-ylamino]-2-methyl-propan-2-ol] | 14 | 95
10 | CNc1nc(NCC(C)(C)O)nc2c(NC)nc(NCc3ncccn3)nc12 [Compound 109, 1-{4,8-Bis-methylamino-6-[(pyrimidin-2-ylmethyl)-amino]-pyrimido[5,4-d]pyrimidin-2-ylamino}-2-methyl-propan-2-ol] | 21 | 10
11 | CCCNc1nc(NC)c2nc(NCC(O)C(F)(F)F)nc(NC)c2n1 (stereo not shown) [Compound 111, 3-(4,8-Bis-methylamino-6-propylamino-pyrimido[5,4-d]pyrimidin-2-ylamino)-1,1,1-trifluoro-propan-2-ol] | 18 | 105
12 | CCCNc1nc(NC)c2nc(NC[C@H](C)O)nc(NC)c2n1 [Compound 113, (S)-1-(4,8-Bis-methylamino-6-propylamino-pyrimido[5,4-d]pyrimidin-2-ylamino)-propan-2-ol] | 111 | 190
13 | CCCNc1nc(NC)c2nc(NC[C@@H](C)O)nc(NC)c2n1 [Compound 115, (R)-1-(4,8-Bis-methylamino-6-propylamino-pyrimido[5,4-d]pyrimidin-2-ylamino)-propan-2-ol] | 60 | 151
14 | CCCNc1nc(NC)c2nc(NCC(O)CC)nc(NC)c2n1 (stereo not shown) [Compound 117, 1-(4,8-Bis-methylamino-6-propylamino-pyrimido[5,4-d]pyrimidin-2-ylamino)-butan-2-ol] | 150 | 162
15 | CCCNc1nc(NC)c2nc(NC(C)C(C)O)nc(NC)c2n1 (stereo not shown) [Compound 119, 3-(4,8-Bis-methylamino-6-propylamino-pyrimido[5,4-d]pyrimidin-2-ylamino)-butan-2-ol] | 10 | 151
16 | CCCNc1nc(NC)c2nc(NCC(O)CO)nc(NC)c2n1 (stereo not shown) [Compound 121, 3-(4,8-Bis-methylamino-6-propylamino-pyrimido[5,4-d]pyrimidin-2-ylamino)-propane-1,2-diol] | 0 | 38
17 | CCCNc1nc(NC)c2nc(N[C@@H]3c4ccccc4C[C@@H]3O)nc(NC)c2n1 [Compound 123, (1R,2S)-1-(4,8-Bis-methylamino-6-propylamino-pyrimido[5,4-d]-pyrimidin-2-ylamino)-indan-2-ol] | 11 | 129
18 | CCCNc1nc(NC)c2nc(N[C@H]3c4ccccc4C[C@@H]3O)nc(NC)c2n1 [Compound 125, (1S,2S)-1-(4,8-Bis-methylamino-6-propylamino-pyrimido[5,4-d]-pyrimidin-2-ylamino)-indan-2-ol] | 38 | 84
19 | CCCNc1nc(NC)c2nc(N[C@H]3c4ccccc4C[C@H]3O)nc(NC)c2n1 [Compound 127, (1S,2R)-1-(4,8-Bis-methylamino-6-propylamino-pyrimido[5,4-d]-pyrimidin-2-ylamino)-indan-2-ol] | 81 | 108
20 | CCCNc1nc(NC)c2nc(N[C@@H]3c4ccccc4C[C@H]3O)nc(NC)c2n1 [Compound 129, (1R,2R)-1-(4,8-Bis-methylamino-6-propylamino-pyrimido[5,4-d]-pyrimidin-2-ylamino)-indan-2-ol] | 2 | 68
21 | CCCNc1nc(NC)c2nc(N[C@H]3CCCC[C@H]3O)nc(NC)c2n1 [Compound 131, (1R,2S)-2-(4,8-Bis-methylamino-6-propylamino-pyrimido[5,4-d]pyrimidin-2-ylamino)-cyclohexanol] | 18 | 142
22 | CCCNc1nc(NC)c2nc(N[C@H]3CCCC[C@@H]3O)nc(NC)c2n1 [Compound 133, (1S,2S)-2-(4,8-Bis-methylamino-6-propylamino-pyrimido[5,4-d]pyrimidin-2-ylamino)-cyclohexanol] | 35 | 111
23 | CCCNc1nc(NC)c2nc(N[C@@H]3CCCC[C@@H]3O)nc(NC)c2n1 [Compound 135, (1S,2R)-2-(4,8-Bis-methylamino-6-propylamino-pyrimido[5,4-d]pyrimidin-2-ylamino)-cyclohexanol] | 22 | 142
24 | CCCNc1nc(NC)c2nc(N[C@@H]3CCCC[C@H]3O)nc(NC)c2n1 [Compound 137, (1R,2R)-2-(4,8-Bis-methylamino-6-propylamino-pyrimido[5,4-d]pyrimidin-2-ylamino)-cyclohexanol] | 22 | 103
25 | CCCNc1nc(NC)c2nc(N[C@H]3CCC[C@@H]3O)nc(NC)c2n1 [Compound 139, (1S,2S)-2-(4,8-Bis-methylamino-6-propylamino-pyrimido[5,4-d]pyrimidin-2-ylamino)-cyclopentanol] | 90 | 114
26 | CCCNc1nc(NC)c2nc(N[C@@H]3CCC[C@H]3O)nc(NC)c2n1 [Compound 141, (1R,2R)-2-(4,8-Bis-methylamino-6-propylamino-pyrimido[5,4-d]pyrimidin-2-ylamino)-cyclopentanol] | 71 | 146
27 | CNc1nc(NC[C@H](C)O)nc2c(NC)nc(NCC3CC3)nc12 [Compound 142, (S)-1-[6-(Cyclopropylmethyl-amino)-4,8-bis-methylamino-pyrimido[5,4-d]pyrimidin-2-ylamino]-propan-2-ol] | 2 | 62
28 | C=CCNc1nc(NC)c2nc(NC[C@H](C)O)nc(NC)c2n1 [Compound 143, (S)-1-(6-Allylamino-4,8-bis-methylamino-pyrimido[5,4-d]pyrimidin-2-ylamino)-propan-2-ol] | 81 | 150
29 | CNc1nc(NC[C@@H](C)O)nc2c(NC)nc(NCC3CC3)nc12 [Compound 144, (R)-1-[6-(Cyclopropylmethyl-amino)-4,8-bis-methylamino-pyrimido[5,4-d]pyrimidin-2-ylamino]-propan-2-ol] | 14 | 98
